Assay results as given in US20150291598A1 (NOVARTIS AG, priority 2012, published 2015).

Tested on: P. falciparum (NF54 or 3D7 strain)
Assay: Assay for P. falciparum proliferation in infected human blood cells (SYBR Green)
Type: cell-based, Plasmodium falciparum
Conditions: Plasmodium falciparum, 3D7|NF54, Erythrocyte, in Homo sapiens, 72 h, NF54 or 3D7 infected human erythrocytes, 72 hours; read-out: EC50 (nM), inhibitory efficacy in delaying P. falciparum proliferation in infected human blood cells
How it was run: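 NF54 or 3D7 parasites in O+ human erythrocytes at 2.5% hematocrit and 0.3% parasitemia final, exposed to compounds 72 h at 37 °C under 93% N2/4% CO2/3% O2.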

Row | Compound | EC50 [nM]
1 | CN(C(=O)c1cn2c(-c3ccc(-n4ccnc4)cc3)cnc2cn1)c1ccc(C#N)cc1 [Compound 146] | 462
2 | CN(C(=O)c1cn2c(-c3ccc(S(N)(=O)=O)cc3)cnc2cn1)c1ccc(C#N)cc1 [Compound 148] | 1360

Same assay, conditions: Plasmodium falciparum, Erythrocyte, 72 h, NF54 or 3D7 infected human erythrocytes, 72 hours; read-out: EC50 (nM), inhibitory efficacy in delaying P. falciparum proliferation in infected human blood cells

Row | Compound | EC50 [nM]
3 | CN(C(=O)c1cn2c(-c3ccc(Cl)cc3)cnc2cn1)c1ccc(C#N)cc1 [Compound 132, 3-(4-chlorophenyl)-N-(4-cyanophenyl)-N-methylimidazo[1,2-a]pyrazine-6-carboxamide] | 206
4 | N#Cc1ccc(N(CCC2CCOCC2)C(=O)c2cn3c(-c4ccc(C(F)(F)F)cc4)cnc3cn2)cc1 [Compound 133, N-(4-cyanophenyl)-N-[2-(oxan-4-yl)ethyl]-3-[4-(trifluoromethyl)phenyl]imidazo[1,2-a]pyrazine-6-carboxamide] | 338
5 | CC(=O)c1ccc(-c2cnc3cnc(C(=O)N(C)c4ccc(C#N)cc4)cn23)cc1 [Compound 134, 3-(4-acetylphenyl)-N-(4-cyanophenyl)-N-methylimidazo[1,2-a]pyrazine-6-carboxamide] | 490
6 | Cc1ccc(-c2cnc3cnc(C(=O)N(C)c4ccc(F)c(F)c4)cn23)cc1 [Compound 135, N-(3,4-difluorophenyl)-N-methyl-3-(4-methylphenyl)imidazo[1,2-a]pyrazine-6-carboxamide] | 81
7 | CN(C(=O)c1cn2c(-c3ccc4c(ccn4C)c3)cnc2cn1)c1ccc(F)cc1 [Compound 136, N-(4-fluorophenyl)-N-methyl-3-(1-methyl-1H-indol-5-yl)imidazo[1,2-a]pyrazine-6-carboxamide] | 320
8 | CN(C(=O)c1cn2c(-c3ccc(C(F)(F)F)cc3)cnc2cn1)c1cccc(F)c1 [Compound 137, N-(3-fluorophenyl)-N-methyl-3-[4-(trifluoromethyl)phenyl]imidazo[1,2-a]pyrazine-6-carboxamide] | 226
9 | CN(C(=O)c1cn2c(-c3ccc(OCC(F)(F)F)cc3)cnc2cn1)c1ccc(C#N)cc1 [Compound 138, N-(4-cyanophenyl)-N-methyl-3-[4-(2,2,2-trifluoroethoxy)phenyl]imidazo[1,2-a]pyrazine-6-carboxamide] | 849
10 | COc1ccc(N(C)C(=O)c2cn3c(-c4ccc(C(F)(F)F)cc4)cnc3cn2)cc1 [Compound 139, N-(4-methoxyphenyl)-N-methyl-3-[4-(trifluoromethyl)phenyl]imidazo[1,2-a]pyrazine-6-carboxamide] | 1160
11 | CN(C(=O)c1cn2c(-c3ccc(C(F)(F)F)cc3F)cnc2cn1)c1ccc(C#N)cc1 [Compound 140, N-(4-cyanophenyl)-3-[2-fluoro-4-(trifluoromethyl)phenyl]-N-methylimidazo[1,2-a]pyrazine-6-carboxamide] | 436
12 | CN(C(=O)c1cn2c(-c3ccc4c(ccn4C)c3)cnc2cn1)c1ccc(Cl)cc1 [Compound 141, N-(4-chlorophenyl)-N-methyl-3-(1-methyl-1H-indol-5-yl)imidazo[1,2-a]pyrazine-6-carboxamide] | 433
13 | CN(C(=O)c1cn2c(-c3ccc(OC(F)F)cc3)cnc2cn1)c1ccc(F)c(F)c1 [Compound 142, 3-[4-(difluoromethoxy)phenyl]-N-(3,4-difluorophenyl)-N-methylimidazo[1,2-a]pyrazine-6-carboxamide] | 202
14 | CN(C(=O)c1cn2c(-c3ccc4[nH]cnc4c3)cnc2cn1)c1ccc(C#N)cc1 [Compound 143, 3-(1H-1,3-benzodiazol-5-yl)-N-(4-cyanophenyl)-N-methylimidazo[1,2-a]pyrazine-6-carboxamide] | 1560
15 | CN(C(=O)c1cn2c(-c3ccc(-n4cccn4)cc3)cnc2cn1)c1ccc(F)c(F)c1 [Compound 144, N-(3,4-difluorophenyl)-N-methyl-3-[4-(1H-pyrazol-1-yl)phenyl]imidazo[1,2-a]pyrazine-6-carboxamide] | 366
16 | CN(C(=O)c1cn2c(-c3ccc4[nH]ncc4c3)cnc2cn1)c1ccc(C#N)cc1 [Compound 145, N-(4-cyanophenyl)-3-(1H-indazol-5-yl)-N-methylimidazo[1,2-a]pyrazine-6-carboxamide] | 648
17 | CN(C(=O)c1cn2c(-c3ccc(C(F)(F)F)cc3)cnc2cn1)c1ccc(C#N)nc1 [Compound 147, N-(6-cyanopyridin-3-yl)-N-methyl-3-[4-(trifluoromethyl)phenyl]imidazo[1,2-a]pyrazine-6-carboxamide] | 564
18 | CN(C(=O)c1cn2c(-c3ccc4nn(C)cc4c3)cnc2cn1)c1ccc(C#N)cc1 [Compound 149, N-(4-cyanophenyl)-N-methyl-3-(2-methyl-2H-indazol-5-yl)imidazo[1,2-a]pyrazine-6-carboxamide] | 1520
19 | Cc1cc(C(F)(F)F)ccc1-c1cnc2cnc(C(=O)N(C)c3ccc(C#N)cc3)cn12 [Compound 150, N-(4-cyanophenyl)-N-methyl-3-[2-methyl-4-(trifluoromethyl)phenyl]imidazo[1,2-a]pyrazine-6-carboxamide] | 3590
20 | CN(C(=O)c1cn2c(-c3ccc(-n4cccn4)cc3)cnc2cn1)c1ccc(F)cc1 [Compound 151, N-(4-fluorophenyl)-N-methyl-3-[4-(1H-pyrazol-1-yl)phenyl]imidazo[1,2-a]pyrazine-6-carboxamide] | 673
21 | CC(C)S(=O)(=O)c1ccc(-c2cnc3cnc(C(=O)N(C)c4ccc(C#N)cc4)cn23)cc1 [Compound 152, N-(4-cyanophenyl)-N-methyl-3-[4-(propane-2-sulfonyl)phenyl]imidazo[1,2-a]pyrazine-6-carboxamide] | 3170
22 | CN(C(=O)c1cn2c(-c3ccc(F)cc3)cnc2cn1)c1ccc(C#N)cc1 [Compound 153, N-(4-cyanophenyl)-3-(4-fluorophenyl)-N-methylimidazo[1,2-a]pyrazine-6-carboxamide] | 2060
23 | CN(C(=O)c1cn2c(-c3ccc4cn[nH]c4c3)cnc2cn1)c1ccc(C#N)cc1 [Compound 154, N-(4-cyanophenyl)-3-(1H-indazol-6-yl)-N-methylimidazo[1,2-a]pyrazine-6-carboxamide] | 2690
24 | CN(C(=O)c1cn2c(-c3ccc(Cl)c(C#N)c3)cnc2cn1)c1ccc(C#N)cc1 [Compound 155, 3-(4-chloro-3-cyanophenyl)-N-(4-cyanophenyl)-N-methylimidazo[1,2-a]pyrazine-6-carboxamide] | 2390
25 | CC(C)c1nc(-c2cnc3cnc(C(=O)N(C)c4ccc(C#N)cc4)cn23)cs1 [Compound 156, N-(4-cyanophenyl)-N-methyl-3-[2-(propan-2-yl)-1,3-thiazol-4-yl]imidazo[1,2-a]pyrazine-6-carboxamide] | 391
26 | CN(C(=O)c1cn2c(-c3ccc4ncccc4c3)cnc2cn1)c1ccc(C#N)cc1 [Compound 157, N-(4-cyanophenyl)-N-methyl-3-(quinolin-6-yl)imidazo[1,2-a]pyrazine-6-carboxamide] | 2010
27 | CN(C(=O)c1cn2c(-c3ccc(C(=O)NC4CC4)cc3)cnc2cn1)c1ccc(C#N)cc1 [Compound 158, N-(4-cyanophenyl)-3-[4-(cyclopropylcarbamoyl)phenyl]-N-methylimidazo[1,2-a]pyrazine-6-carboxamide] | 2050
28 | CN(C)c1ccc(-c2cnc3cnc(C(=O)N(C)c4ccc(F)c(F)c4)cn23)cc1 [Compound 159, N-(3,4-difluorophenyl)-3-[4-(dimethylamino)phenyl]-N-methylimidazo[1,2-a]pyrazine-6-carboxamide] | 368
